Assay results taken from the supplement of paper PMC13380429.

Columns and labels:
[1] = system: A549-ACE2 infected with SARS-CoV-2; assay: cell count relative to DMSO; higher = less toxic; details: 24 h
Caco-2 [2] = assay: cell viability relative to DMSO; higher = less toxic; details: 72 h
HepG2 [3] = assay: as above; details: 72 h
U2OS [4] = assay: as above; details: 72 h
Vero E6 [5] = assay: as above; details: 72 h
[6] = system: A549-ACE2 infected with SARS-CoV-2; assay: SARS-CoV-2 infection rate relative to DMSO; higher = more infection; details: 24 h
A549-ACE2 [7] = assay: phospholipidosis EC50; higher = less potent phospholipidosis inducer
A549-ACE2 [8] = assay: drug-induced phospholipidosis relative to tamoxifen; higher = more phospholipidosis
[9] = system: A549-ACE2 infected with SARS-CoV-2; assay: morphology score (similarity to uninfected cells); higher = more like uninfected cells; details: 24 h
Caco-2 [10] = assay: relative viability EC50 (midpoint between 100% and the lowest measured viability); higher = less toxic; details: 72 h
HepG2 [11] = assay: as above; details: 72 h
U2OS [12] = assay: as above; details: 72 h
Vero E6 [13] = assay: as above; details: 72 h
Caco-2 [14] = assay: drug sensitivity score (DSS) for viability; higher = more toxic; extreme values may be limits of the assay; details: 72 h
HepG2 [15] = assay: as above; details: 72 h
U2OS [16] = assay: as above; details: 72 h
Vero E6 [17] = assay: as above; details: 72 h

COc1cccc([C@@H](C)NCCCc2ccccc2Cl)c1 [tecalcet]
Details | SARS-CoV-2 infection rate [%] | cell count [%] | cell viability [%] | morphology score | phospholipidosis EC50 [µM]
A549-ACE2 [7], 24 h | – | – | – | – | 6.31
A549-ACE2 [7], 48 h | – | – | – | – | 8.26
A549-ACE2 [7], 72 h | – | – | – | – | 11.4
Caco-2 [2], 1 nM | – | – | 101 | – | –
Caco-2 [2], 10 nM | – | – | 94.8 | – | –
Caco-2 [2], 100 nM | – | – | 94.5 | – | –
Caco-2 [2], 1000 nM | – | – | 92.4 | – | –
Caco-2 [2], 10000 nM | – | – | 86.3 | – | –
HepG2 [3], 1 nM | – | – | 92.9 | – | –
HepG2 [3], 10 nM | – | – | 101 | – | –
HepG2 [3], 100 nM | – | – | 101 | – | –
HepG2 [3], 1000 nM | – | – | 108 | – | –
HepG2 [3], 10000 nM | – | – | 83.1 | – | –
U2OS [4], 1 nM | – | – | 101 | – | –
U2OS [4], 10 nM | – | – | 97.6 | – | –
U2OS [4], 100 nM | – | – | 101 | – | –
U2OS [4], 1000 nM | – | – | 102 | – | –
U2OS [4], 10000 nM | – | – | 90.2 | – | –
Vero E6 [5], 1 nM | – | – | 108 | – | –
Vero E6 [5], 10 nM | – | – | 103 | – | –
Vero E6 [5], 100 nM | – | – | 101 | – | –
Vero E6 [5], 1000 nM | – | – | 101 | – | –
Vero E6 [5], 10000 nM | – | – | 96.2 | – | –
[1], 0.3 µM | – | 97 | – | – | –
[1], 3 µM | – | 105 | – | – | –
[1], 10 µM | – | 116 | – | – | –
[1], 30 µM | – | 112 | – | – | –
[6], 0.3 µM | 111 | – | – | – | –
[6], 3 µM | 84 | – | – | – | –
[6], 10 µM | 52 | – | – | – | –
[6], 30 µM | 10 | – | – | – | –
[9], 0.3 µM | – | – | – | -0.35 | –
[9], 3 µM | – | – | – | 0.47 | –
[9], 10 µM | – | – | – | 0.9 | –
[9], 30 µM | – | – | – | 0.78 | –

drug-induced phospholipidosis [%], A549-ACE2 [8]
Details | 0.3 µM | 0.833333 µM | 3.33333 µM | 6.66667 µM | 10 µM | 30 µM
24 h | 3.6 | 1.52 | 14.2 | 49.8 | 74.2 | 90
48 h | 5 | 4.11 | 18.9 | 41.5 | 67.1 | 98.2
72 h | 7.69 | 2.06 | 15.2 | 34.4 | 61.6 | 117

Details | drug sensitivity score | relative viability EC50 [µM]
Caco-2 [10] | – | > 10
Caco-2 [14] | 0.2 | –
HepG2 [11] | – | > 10
HepG2 [15] | 0.2 | –
U2OS [12] | – | > 10
U2OS [16] | 0 | –
Vero E6 [13] | – | > 10
Vero E6 [17] | 0 | –
